The values that follow come from patent US6274622A, “Method of treating diabetic ophthalmopathy” (priority 1999, dated 2001).

One series deals with humans. The experiment in a line: administration to humans, tolerability. Set-up: species or system human. The settings on record: in vivo.
Series [1] in a line: in vivo. The following applies: mouse, iv.
A short description of series [2]: in vivo. The following applies: dog, iv.
The conditions of series [3]: accepted value; cited from earlier work.
The test system of the next series is diabetic retinopathy. The settings on record: humans, mainly in the 1980s; cited from earlier work.

As for `O=S(=O)([O-])CCSSCCS(=O)(=O)[O-].[Na+].[Na+]`, in the series with humans, the “dose administered with no adverse effects” value is recorded as “exceeding 15 g/m^2”. Moreover, the NOAEL in “in vivo [1]” and in the series “in vivo [2]” was more than 3750 mg/kg in each case.
As for `[Cl-].[Na+]` [common table salt], the “oral LD50” value in series [3] is listed as 3750 mg/kg.
As to `O=C1NC(=O)[C@@]2(CCOc3ccc(F)cc32)N1` [sorbinil], in the series with diabetic retinopathy, the “efficacy in slowing progress of diabetic retinopathy and other diabetic complications” value is given as “some efficacy”; the “toxicity / tolerability in patients” value is recorded as “highly toxic”.
